Molecules are shown by their SMILES.

For this assay, the target named is T1, Enoyl-acyl carrier reductase (Plasmodium falciparum, UniProt Q9BH77).
T1 sequence (Q9BH77 whole entry): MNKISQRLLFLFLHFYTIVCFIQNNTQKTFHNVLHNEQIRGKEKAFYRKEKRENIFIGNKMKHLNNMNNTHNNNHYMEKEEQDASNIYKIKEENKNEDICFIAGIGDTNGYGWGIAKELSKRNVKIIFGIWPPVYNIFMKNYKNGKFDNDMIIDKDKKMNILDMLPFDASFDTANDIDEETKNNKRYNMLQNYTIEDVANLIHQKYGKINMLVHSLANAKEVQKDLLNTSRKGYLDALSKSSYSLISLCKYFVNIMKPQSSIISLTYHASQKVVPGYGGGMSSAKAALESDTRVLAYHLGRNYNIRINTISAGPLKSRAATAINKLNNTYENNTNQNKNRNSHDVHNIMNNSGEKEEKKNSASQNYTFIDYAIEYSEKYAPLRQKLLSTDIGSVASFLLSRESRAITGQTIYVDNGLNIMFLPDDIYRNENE
In words: Fabl Assay. Conditions: pH 7.4. The source says: Inhibition assay using pfENR.
With `O=C(CNc1ccccc1)N/N=C/c1ccccc1O` [Phenylaminoacetic acid benzylidene hydrazine analog, 10], the IC50 (as a rule, the concentration that inhibits the measured activity by half) is > 185 µM.

Consider `CN(C)c1ccc(/C=N/NC(=O)CNc2ccccc2)cc1` [Phenylaminoacetic acid benzylidene hydrazine analog, 11], for which the IC50 is > 168 µM. In the case of `O=C(CNc1ccc(Cl)cc1)N/N=C/c1ccccc1` [Phenylaminoacetic acid benzylidene hydrazine analog, 4] it was 10 µM. The result for `COc1ccc(/C=N/NC(=O)CNc2ccccc2)cc1OC` [Phenylaminoacetic acid benzylidene hydrazine analog, 2] reads > 159 µM; that for `COc1ccc(/C=N/NC(=O)CNc2ccc(Cl)cc2)cc1OC` [Phenylaminoacetic acid benzylidene hydrazine analog, 3], > 143 µM; that for `CN(C)c1ccc(/C=N/NC(=O)CNc2ccc(F)cc2)cc1` [Phenylaminoacetic acid benzylidene hydrazine analog, 7], 8 µM. In the case of `O=C(CNc1ccccc1)N/N=C/c1ccccc1Cl` [Phenylaminoacetic acid benzylidene hydrazine analog, 1] it was 90 µM; in that of `O=C(CNc1ccc(F)cc1)N/N=C/c1ccccc1O` [Phenylaminoacetic acid benzylidene hydrazine analog, 6], 12 µM. Consider `O=C(CNc1cccc(F)c1Cl)N/N=C/c1ccccc1` [Phenylaminoacetic acid benzylidene hydrazine analog, 13], for which the IC50 is > 163 µM.

As for `O=C(CNc1cccc(F)c1Cl)N/N=C/c1cccc(Br)c1` [Phenylaminoacetic acid benzylidene hydrazine analog, 15], the IC50 was > 129 µM. In the case of `O=C(CNc1cccc(Cl)c1)N/N=C/c1ccccc1Cl` [Phenylaminoacetic acid benzylidene hydrazine analog, 20] it was 77 µM; in that of `O=C(CNc1cccc(Cl)c1)N/N=C/c1cccc(Br)c1` [Phenylaminoacetic acid benzylidene hydrazine analog, 21], 163 µM.

Molecule `O=C(CNc1ccccc1)N/N=C/c1cccc(Br)c1` [Phenylaminoacetic acid benzylidene hydrazine analog, 9] gave an IC50 of 90 µM. Regarding `O=C(CNc1ccc(F)cc1)N/N=C/c1ccccc1Cl` [Phenylaminoacetic acid benzylidene hydrazine analog, 18], 163 µM corresponded to half-maximal inhibition (IC50). The result for `O=C(CNc1ccc(Cl)cc1)N/N=C/c1ccccc1O` [Phenylaminoacetic acid benzylidene hydrazine analog, 16] reads > 164 µM. The result for `O=C(CNc1cccc(F)c1Cl)N/N=C/c1ccccc1O` [Phenylaminoacetic acid benzylidene hydrazine analog, 12] reads > 155 µM. The result for `O=C(CNc1cccc(Cl)c1)N/N=C/c1ccccc1` [Phenylaminoacetic acid benzylidene hydrazine analog, 19] reads 173 µM; that for `O=C(CNc1ccc(Cl)cc1)N/N=C/c1cccc(Br)c1` [Phenylaminoacetic acid benzylidene hydrazine analog, 17], 7 µM; that for `O=C(CNc1cccc(F)c1Cl)N/N=C/c1ccccc1Cl` [Phenylaminoacetic acid benzylidene hydrazine analog, 14], 29 µM.

Take `O=C(CNc1ccccc1)N/N=C/c1ccccc1` [Phenylaminoacetic acid benzylidene hydrazine analog, 8]: the IC50 came to 197 µM.

(Values after BindingDB's records for doi:10.1111/cbdd.12118 (Bombay College of Pharmacy, 2013).)
